Patent US3963756A, “Derivatives of 6-methyl-2H-pyran-2,4(3H)-dione” (Zaidan Hojin Biseibutsu Kagaku Kenkyu Kai, priority 1972, dated 1976)

Tests used:
Tyrosine Hydroxylase = target: T1, Tyrosine Hydroxylase (Bos taurus, UniProt P17289); assay: Inhibition of tyrosine hydroxylase (TH); assay type: biochemical; settings: for inhibition at 100 µg/mL: 100 mcg/cc; for inhibition at 200 µg/mL: 200 mcg/cc
T1 sequence (P17289 1-491): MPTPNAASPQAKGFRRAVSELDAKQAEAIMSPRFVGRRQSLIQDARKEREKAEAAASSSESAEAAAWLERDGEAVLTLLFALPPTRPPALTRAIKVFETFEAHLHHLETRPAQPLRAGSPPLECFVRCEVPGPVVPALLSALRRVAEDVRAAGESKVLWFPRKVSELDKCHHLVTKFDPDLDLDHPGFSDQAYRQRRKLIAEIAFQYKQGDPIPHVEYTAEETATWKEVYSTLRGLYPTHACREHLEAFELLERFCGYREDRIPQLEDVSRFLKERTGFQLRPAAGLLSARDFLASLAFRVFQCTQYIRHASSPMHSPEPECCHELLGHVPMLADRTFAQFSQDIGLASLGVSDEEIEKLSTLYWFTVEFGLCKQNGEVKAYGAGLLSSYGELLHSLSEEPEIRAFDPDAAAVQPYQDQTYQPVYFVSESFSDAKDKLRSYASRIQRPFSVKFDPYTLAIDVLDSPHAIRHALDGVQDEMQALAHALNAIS
Description: (§1) The new compounds of the present invention have been examined for their biological activities, and their inhibition to tyrosine hydroxylase and dopamine β-hydroxylase are summarized below in Table 2. The details of the test methods used and the close relationship and reliable correlation of biological activities between in vitro and in vivo test results are well documented in the literature, e.g. J. Antibiot. 23: 514 (1970); Biochem. Pharmacol., 19: 35 (1970); and J. Am. Chem. Soc. 93: 1285 (1971). […] The effects of this compound on tyrosine hydroxylase and dopamine β-hydroxylase were also tested by the methods described in the Journal of Antibiotics 23:514 (1970) and Biochem. Pharmacol. 19:35 (1970), respectively.
(§2) The chemical structure of the products [I], solvent for hydrogenation and solvent for recrystallization are summarised in Table 1, and the yields of the products [I] are also shown in Table 1 together with their melting points, elemental analysis data, Inhibition (%) of tyrosine hydroxylase (TH) and Inhibition (%) to dopamine β-hydroxylase (DH) at different concentrations of the products [I] of 100 mcg/cc and 200 mcg/cc.

Dopamine β-Hydroxylase = target: T2, Dopamine β-Hydroxylase (Bos taurus, UniProt P15101); assay: Inhibition of dopamine β-hydroxylase (DH); assay type: biochemical; settings: 200 mcg/cc
T2 sequence (P15101 1-610): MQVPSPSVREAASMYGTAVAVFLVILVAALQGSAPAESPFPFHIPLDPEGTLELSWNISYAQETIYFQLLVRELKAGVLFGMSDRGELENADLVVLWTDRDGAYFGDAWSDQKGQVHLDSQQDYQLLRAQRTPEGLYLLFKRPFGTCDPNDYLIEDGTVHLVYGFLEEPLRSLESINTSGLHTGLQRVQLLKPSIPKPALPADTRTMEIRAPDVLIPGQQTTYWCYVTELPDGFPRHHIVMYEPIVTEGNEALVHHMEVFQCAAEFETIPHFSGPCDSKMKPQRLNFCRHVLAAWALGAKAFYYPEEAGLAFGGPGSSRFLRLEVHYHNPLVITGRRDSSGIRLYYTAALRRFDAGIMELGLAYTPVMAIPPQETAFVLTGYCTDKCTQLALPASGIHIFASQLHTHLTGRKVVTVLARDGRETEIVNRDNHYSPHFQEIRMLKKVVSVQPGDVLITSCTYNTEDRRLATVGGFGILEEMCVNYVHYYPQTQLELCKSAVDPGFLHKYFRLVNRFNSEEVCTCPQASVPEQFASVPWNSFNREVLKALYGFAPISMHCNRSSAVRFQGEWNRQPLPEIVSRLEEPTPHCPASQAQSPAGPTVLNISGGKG
Description: as §1, §2

[1] = Lowering of blood pressure (general statements); set-up: species or system mammals; settings: in vivo

SMILES | inhibition at 100 µg/mL (Tyrosine Hydroxylase) [%] | inhibition at 200 µg/mL (Tyrosine Hydroxylase) [%] | inhibition at 200 µg/mL (Dopamine β-Hydroxylase) [%] | blood pressure reducing (hypotensive) activity, in words [1]
CC1=CC(=O)C(C(=O)CCc2cc(Cl)cc(Cl)c2O)C(=O)O1 (stereo not shown) [Example 34] | 53.6 | 69.3 | 82.3 | 
CC1=CC(=O)C(C(=O)CCc2ccc3c(c2)OCO3)C(=O)O1 (stereo not shown) [Example 3, 3-(3,4-methylenedioxyhydrocinnamoyl)-6-methyl-2H-pyran-2,4(3H)-dione] | 13.7 | 18.5 | 86.7 | 
CC1=CC(=O)C(C(=O)CCc2ccc(F)cc2)C(=O)O1 (stereo not shown) [Example 31] | 60.1 |  | 42 | 
CC1=CC(=O)C(C(=O)CCc2cccc(O)c2)C(=O)O1 (stereo not shown) [Example 4] | 64.7 | 67.2 | 81.7 | 
CC1=CC(=O)C(C(=O)CCc2ccc(Cl)cc2Cl)C(=O)O1 (stereo not shown) [Example 28] | 29.8 | 29.1 | 100 | 
CC1=CC(=O)C(C(=O)CCc2cccc3ccccc23)C(=O)O1 (stereo not shown) [Example 36] | 34.8 |  | 56.2 | 
COc1ccc(CCC(=O)C2C(=O)C=C(C)OC2=O)cc1OC (stereo not shown) [3-(3,4-dimethoxyhydrocinnamoyl)-6-methyl-2H-pyran-2,4(3H)-dione, reference compound] | 61.3 | 72.5 | 32.5 | active in reducing blood pressure
COc1cc(CCC(=O)C2C(=O)C=C(C)OC2=O)ccc1O (stereo not shown) [Example 19] | 14.6 | 26 | 29.6 | 
CC1=CC(=O)C(C(=O)CCc2ccccc2Cl)C(=O)O1 (stereo not shown) [Example 17] | 37.1 | 48.4 | 89.8 | 
COc1ccc(CCC(=O)C2C(=O)C=C(C)OC2=O)cc1 (stereo not shown) [Example 1, 3-(4-methoxyhydrocinnamoyl)-6-methyl-2H-pyran-2,4(3H)-dione] | 40.7 | 47.9 | 35 | 
CC1=CC(=O)C(C(=O)CCc2ccc(C(F)(F)F)cc2)C(=O)O1 (stereo not shown) [Example 32] | 50.4 |  | 88 | 
CC1=CC(=O)C(C(=O)CCc2ccc(C)o2)C(=O)O1 (stereo not shown) [Example 30] | 23.5 |  | 100 | 
CC1=CC(=O)C(C(=O)CCc2ccc(Cl)cc2)C(=O)O1 (stereo not shown) [Example 5] | 66 | 64.8 | 84.4 | 
CC1=CC(=O)C(C(=O)CCCCc2ccccc2)C(=O)O1 (stereo not shown) [Example 12] | 33.7 |  | 85.8 | 
COc1cccc(CCC(=O)C2C(=O)C=C(C)OC2=O)c1OC (stereo not shown) [Example 21] | 39 |  | 74.7 | 
CC1=CC(=O)C(C(=O)CCc2cccc(Br)c2)C(=O)O1 (stereo not shown) [Example 26] | 11.3 | 19.8 | 97 | 
COC(=O)c1ccc(CCC(=O)C2C(=O)C=C(C)OC2=O)cc1 (stereo not shown) [Example 14, 3-(4-methoxycarbonylhydrocinnamoyl)-6-methyl-2H-pyran-2,4(3H)-dione] | 13 | 15 | 54.9 | 
CC1=CC(=O)C(C(=O)CCc2ccco2)C(=O)O1 (stereo not shown) [Example 24, 3-[3-(2-furyl)propanoyl]-6-methyl-2H-pyran-2,4(3H)-dione] | 44.7 | 45.5 | 60.3 | 
CCOc1ccc(CCC(=O)C2C(=O)C=C(C)OC2=O)cc1 (stereo not shown) [Example 11] |  | 10.1 | 6 | 
COc1cccc(CCC(=O)C2C(=O)C=C(C)OC2=O)c1 (stereo not shown) [Example 25] | 32 | 34.9 | 83.5 | 

SMILES | inhibition at 100 µg/mL (Tyrosine Hydroxylase) [%] | inhibition at 200 µg/mL (Tyrosine Hydroxylase) [%] | inhibition at 200 µg/mL (Dopamine β-Hydroxylase) [%] | blood pressure reducing (hypotensive) activity, in words [1]
CCOc1cc(CCC(=O)C2C(=O)C=C(C)OC2=O)ccc1O (stereo not shown) [Example 22] | 22.7 | 24.4 | 61.5 | 
COc1ccc(CCC(=O)C2C(=O)C=C(C)OC2=O)c(OC)c1 (stereo not shown) [Example 27] | 20 | 26 | 44.9 | 
CC1=CC(=O)C(C(=O)CCc2ccc(O)cc2)C(=O)O1 (stereo not shown) [Example 7] | 65.2 | 70.6 | 77.7 | 
CC1=CC(=O)C(C(=O)CCc2ccc(C#N)cc2)C(=O)O1 (stereo not shown) [Example 8] | 81.4 | 84.5 | 77.5 | 
COc1ccccc1CCC(=O)C1C(=O)C=C(C)OC1=O (stereo not shown) [Example 18] | 32 |  | 98.3 | 
COc1cccc(CCC(=O)C2C(=O)C=C(C)OC2=O)c1O (stereo not shown) [Example 15] | 20.9 | 29.9 |  | 
CC1=CC(=O)C(C(=O)CCc2ccc(C)cc2)C(=O)O1 (stereo not shown) [Example 29, 3-(4-methylhydrocinnamoyl)-6-methyl-2H-pyran-2,4(3H)-dione] | 52.5 | 52.6 | 85 | 
CC1=CC(=O)C(C(=O)CCc2ccc(Cl)c(Cl)c2)C(=O)O1 (stereo not shown) [Example 6] | 54.6 | 61 | 90.4 | 
COc1ccc(CCC(=O)C2C(=O)C=C(C)OC2=O)cc1O (stereo not shown) [Example 2, 3-(3-hydroxy-4-methoxyhydrocinnamoyl)-6-methyl-2H-pyran-2,4(3H)-dione] | 80.8 | 93.9 | 67 | 
CC1=CC(=O)C(C(=O)CCc2ccc(O)c(O)c2)C(=O)O1 (stereo not shown) [Example 9] | 80.6 | 93.5 | 20.6 | 
COc1cc(CCC(=O)C2C(=O)C=C(C)OC2=O)cc(OC)c1O (stereo not shown) [Example 35] | 45.8 |  | 43.6 | 
CC1=CC(=O)C(C(=O)CCc2ccccc2O)C(=O)O1 (stereo not shown) [Example 13] | 44.4 | 59.5 | 52.5 | 
CC1=CC(=O)C(C(=O)CCc2ccc(C(N)=O)cc2)C(=O)O1 (stereo not shown) [Example 33] | 20.5 |  | 30.3 | 
CC1=CC(=O)C(C(=O)CCc2c(C)cc(C)cc2C)C(=O)O1 (stereo not shown) [Example 23] | 8.7 |  | 28.9 | 
CC1=CC(=O)C(C(=O)CCc2c(O)ccc3ccccc23)C(=O)O1 (stereo not shown) [Example 37] | 41.8 | 57.2 | 44.7 | 
CC1=CC(=O)C(C(=O)CCc2ccc(N(C)C)cc2)C(=O)O1 (stereo not shown) [Example 16] | 23 | 26.1 |  | 
CC1=CC(=O)C(C(=O)CCc2ccc[nH]2)C(=O)O1 (stereo not shown) [Example 39] | 30.9 |  | 25.1 | 
CC1=CC(=O)C(C(=O)CCc2cccc(Cl)c2)C(=O)O1 (stereo not shown) [Example 10] | 12.7 | 26.5 | 95 | 
CC1=CC(=O)C(C(=O)CCc2cccs2)C(=O)O1 (stereo not shown) [Example 38] | 52.3 |  | 30.3 | 
CC1=CC(=O)C(C(=O)CCc2ccc(C(C)C)cc2)C(=O)O1 (stereo not shown) [Example 20] | 16.8 | 25.5 | 94.5 | 
